In patent publication US20030105281A1, “Antimicrobial peptides isolated from mast cells” (priority 2000, published 2003):
Converted amounts (≈) assume the structure as drawn. Residues, ends and D or L forms follow the SMILES beside them. No end group written: not given here.

How the values were obtained:
Staphylococcus aureus = system: Staphylococcus aureus
Experimental: (§1) The antimicrobial activity of synthetic piscidin 1, piscidin 2 and piscidin 3 (P1, P2 and P3) was tested against a variety of different bacteria.

Pseudomonas aeruginosa = system: Pseudomonas aeruginosa
Experimental: as §1

Escherichia coli = system: Escherichia coli
Experimental: as §1

Aeromonas hydrophilia = type: cell-based
Experimental: as §1

Enterococcus gallinarum = type: cell-based
Experimental: as §1

[1] = system: Staphylococcus epidermidis; type: cell-based
Experimental: as §1

Enterococcus faecium = type: cell-based; details: Case 00-1437, vancomycin resistant, vanA; MHB
Experimental: as §1

Streptococcus iniae = type: cell-based
Experimental: as §1

[2] = type: cell-based
From the text: (§2) where CC is linked via a disulfide bridge.

human pathogens = assay: Activity of dimeric peptide against human pathogens; type: cell-based
From the text: as §2

bacteria = assay: Antibacterial activity of synthetic SEQ ID NO: 4 sequence; type: cell-based; details: synthetic sequence with tryptophan as X
From the text: [SEQ ID NO: 4], where X is tryptophan or beta-hydroxytryptophan. It is tentatively believed that beta-hydroxytryptophan is present as X in the natural sequence.

`CC[C@H](C)[C@H](NC(=O)CNC(=O)[C@H](CCCNC(=N)N)NC(=O)[C@H](Cc1ccccc1)NC(=O)[C@@H](NC(=O)[C@H](Cc1c[nH]cn1)NC(=O)[C@H](Cc1c[nH]cn1)NC(=O)[C@@H](NC(=O)[C@@H](N)Cc1ccccc1)[C@@H](C)CC)[C@@H](C)CC)C(=O)N[C@H](C(=O)N[C@@H](Cc1c[nH]cn1)C(=O)N[C@@H](C)C(=O)NCC(=O)N[C@@H](CCCNC(=N)N)C(=O)N[C@@H](CO)C(=O)N[C@H](C(=O)NCC(=O)N[C@@H](CCCNC(=N)N)C(=O)N[C@@H](Cc1ccccc1)C(=O)N[C@@H](CC(C)C)C(=O)N[C@H](C(=O)NCC(N)=O)[C@@H](C)O)[C@@H](C)CC)C(C)C` [P3] (H-FIHHIFRGIVHAGRSIGRFLTG-NH2; N-terminus assumed) showed an MBC (Staphylococcus aureus) of 3.13 µg/mL (≈ 1.26 µM), an MIC (Staphylococcus aureus) of 3.13 µg/mL (≈ 1.26 µM) and an MBC (Pseudomonas aeruginosa) of 25 µg/mL (≈ 10 µM). The MIC (Pseudomonas aeruginosa) was 25 µg/mL (≈ 10 µM), the MBC (Escherichia coli) was 3.13 µg/mL (≈ 1.26 µM) and the MIC (Escherichia coli) was 3.13 µg/mL (≈ 1.26 µM). The MBC (Aeromonas hydrophilia) was 1.57 to 3.13 µg/mL, the MIC (Aeromonas hydrophilia) was 1.57 to 3.13 µg/mL and the MBC (Enterococcus gallinarum) was 50 µg/mL (≈ 20.1 µM). The MIC (Enterococcus gallinarum) was 50 µg/mL (≈ 20.1 µM), the MIC [1] was 3.13 µg/mL (≈ 1.26 µM) and the MIC (Enterococcus faecium) was 3.13 to 6.25 µg/mL. The MBC (Streptococcus iniae) was 3.13 µg/mL (≈ 1.26 µM) and the MIC (Streptococcus iniae) was 3.13 µg/mL (≈ 1.26 µM).
With “HVIGRFIHHFFCCFFHHIFRGIVH (cysteine pairing not given here; also: dimer) [SEQ ID NO: 6]” the hemolytic activity [2] was “no detectable hemolytic activity” and the “activity against several human pathogens” value (human pathogens) was “active against several human pathogens”.
In the case of `CC[C@H](C)[C@H](NC(=O)CNC(=O)[C@H](CCCNC(=N)N)NC(=O)[C@H](Cc1ccccc1)NC(=O)[C@@H](NC(=O)[C@H](Cc1c[nH]cn1)NC(=O)[C@H](Cc1c[nH]cn1)NC(=O)[C@H](Cc1ccccc1)NC(=O)[C@@H](N)Cc1ccccc1)[C@@H](C)CC)C(=O)N[C@H](C(=O)N[C@@H](Cc1c[nH]cn1)C(=O)N[C@H](C(=O)NCC(=O)N[C@@H](CCCCN)C(=O)N[C@H](C(=O)N[C@H](C(=O)N[C@@H](Cc1c[nH]cn1)C(=O)N[C@@H](CCCNC(=N)N)C(=O)N[C@@H](CC(C)C)C(=O)N[C@H](C(=O)N[C@H](C(=O)NCC(N)=O)[C@@H](C)O)C(C)C)[C@@H](C)CC)[C@@H](C)O)C(C)C)C(C)C` [P1] (H-FFHHIFRGIVHVGKTIHRLVTG-NH2; N-terminus assumed), the MBC (Pseudomonas aeruginosa) is reported as 12.5 µg/mL (≈ 4.86 µM), the MIC (Pseudomonas aeruginosa) is reported as 12.5 µg/mL (≈ 4.86 µM) and the MBC (Aeromonas hydrophilia) is reported as 0.79 to 1.57 µg/mL. The MIC (Aeromonas hydrophilia) was 0.79 to 1.57 µg/mL, the MBC (Enterococcus gallinarum) was 12.5 µg/mL (≈ 4.86 µM) and the MIC (Enterococcus gallinarum) was 12.5 µg/mL (≈ 4.86 µM).
With “FFRHLFRGAKAIFRGARQGXRAHKVVSRYRNRDVPETDNNQEEP [SEQ ID NO: 4, Endobiotic Family 2 peptide, about 5329 Da, X is tryptophan or beta-hydroxytryptophan]” the antibacterial activity (bacteria) was “potent antibacterial activity”.
